Measured values published in patent publication US8609410B2 (priority 2005, dated 2013).

Assays:
Type in all cases: cell-based, human
[1] = tested on: BMLF1-specific CD8+ CTLs; test: Induction of BMLF1-specific CD8+ CTLs by dendritic cells co-pulsed with ZOMETA and BMLF1; conditions: for The number of CTLs / The total number of cells / Ratio of CTLs (%): BMLF1 2 μg/ml; for Ratio of CTLs (%): immature dendritic cells, 7 days
Experimental: (§1) As a negative control, dendritic cells that were cultured without adding ZOMETA™ or the antigenic peptides were used.
After about 12 hours of the culture, part of the activated dendritic cells that were co-pulsed with ZOMETA™ and the antigenic peptides were collected, placed in a 15 ml tube (BD Falcon) and centrifuged at 1500 rpm for 5 minutes. The resultant dendritic cells in the form of pellets were suspended in 10 ml of an AIM-V medium supplemented with 10% FBS and centrifuged at 1500 rpm for 5 minutes, followed by washing. The washing operation was repeated twice. The dendritic cells collected in this manner were used as stimulating cells. In other words, the activated dendritic cells that were co-pulsed with bisphosphonate and the disease antigenic peptides, the dendritic cells that were pulsed with either of them and the dendritic cells that were not pulsed with any of them were used as stimulating cells. Cells prepared by suspending those (a CD14-negative cell population, which was mainly a T cell population) remaining after isolation of the CD14-positive cells for preparing the dendritic cells in an AIM-V medium supplemented with 10% FBS and 10% dimethyl sulfoxide (DMSO), and freeze-preserving them were thawed, washed and used as responding cells. 1×10^5 each of the obtained stimulating cells (dendritic cells) were cultured with 1×10^6 responding cells such that the total amount was 1 ml in a 48-well plate (CORNING) (responding cells:dendritic cells=10:1). The co-culture was carried out at about 37° C. under a condition of 5% CO2 for 7 days. […] In the case where the cells were proliferated rapidly, 1 ml of an AIM-V medium supplemented with 40 U/ml of IL-2 and 10% FBS was added on day 4 to day 6.
After dyeing in a shielded state at room temperature for 15 minutes, an anti-CD8 antibody that was labeled with FITC (BD Pharmingen) was added, followed by dyeing in a shielded state at 4° C. for 15 minutes. As a control, an isotype of each of the antibodies was used. The cells were measured using EPICS XL.MCL, and the results of measurement were analyzed using EPICS 32.

[2] = tested on: A27L-specific CD8+ CTLs; test: Induction of A27L-specific CD8+ CTLs by washed pulsed immature dendritic cells co-cultured with lymphocytes (tetramer flow cytometry)
Experimental: as §1
After about 12 hours of culture, part of the activated dendritic cells that were co-pulsed with ZOMETA™ and the antigenic peptides were collected, placed in a 15 ml tube (BD Falcon) and centrifuged at 1500 rpm for 5 minutes. The resultant dendritic cells in the form of pellets were suspended in 10 ml of an AIM-V medium supplemented with 10% FBS and centrifuged at 1500 rpm for 5 minutes, followed by washing. The washing operation was repeated twice. The dendritic cells collected in this manner were used as stimulating cells. In other words, the activated dendritic cells that were co-pulsed with bisphosphonate and the disease antigenic peptides, the dendritic cells that were pulsed with either of them and the dendritic cells that were not pulsed with any of them were used as stimulating cells. […]
After dyeing in a shielded state at room temperature for 15 minutes, an anti-CD8 antibody that was labeled with FITC (BD Pharmingen) was added, followed by dyeing in a shielded state at 4° C. for 15 minutes. […] The cells were measured using EPICS XL.MCL, and the results of measurement were analyzed using EPICS 32.

[3] = tested on: A27L-specific CD8+ CTLs; test: Induction of A27L-specific CD8+ CTLs by artificial antigen-presenting cells MDA-MB/CD80 co-pulsed with ZOMETA and A27L; conditions: co-pulse 0.01 μM or 1 μM ZOMETA and 2 μg/ml A27L
Experimental: A human CD80 gene, which was a co-stimulatory molecule, was transfected by a lipofection method in a breast cancer-derived cell line: MDA-MB-231 (class I antigen HLA-A*0201) expressing MHC class I molecules, thus establishing a cell line MDA-MB/CD80 expressing human CD80 stably and constantly in MDA-MB-231 cells.
As a negative control, MDA-MB/CD80 cells that were cultured without adding ZOMETA™ or the antigenic peptides were used.
After about 12 hours of culture, part of the activated MDA-MB/CD80 cells that were co-pulsed with ZOMETA™ and the antigenic peptides were collected, placed in a 15 ml tube (BD Falcon) and centrifuged at 1500 rpm for 5 minutes. The resultant MDA-MB/CD80 cells in the form of pellets were suspended in 10 ml of an AIM-V medium supplemented with 10% FBS and centrifuged at 1500 rpm for 5 minutes, followed by washing. The washing operation was repeated twice. The MDA-MB/CD80 cells collected in this manner were used as stimulating cells. In other words, the activated MDA-MB/CD80 cells that were co-pulsed with bisphosphonate and the disease antigenic peptides, the MDA-MB/CD80 cells that were pulsed with either of them and the MDA-MB/CD80 cells that were not pulsed with any of them were used as stimulating cells. […]

[4] = tested on: IFN-γ producing cells; test: IFN-γ ELISPot of co-cultured immunocytes
Experimental: 70% ethanol was added to each well of MultiScreen plate (MILLIPORE) and removed within 2 minutes. Each well of the above-noted plate was washed five times in 200 μl of PBS. […] This plate was left overnight at 4° C. This plate was washed four times in 200 μl/well of PBS. Then, 200 μl of an AIM-V medium supplemented with 10% FBS was added in each well, followed by blocking at room temperature for at least 30 minutes. The blocking medium was removed, and the plate was washed four times in 200 μl/well of PBS. A co-cultured cell population in each condition obtained by a method similar to the above-described co-culture was collected by centrifugation and washed twice in AIM-V.
The number of cells indicates the number per well of an assay plate. […] The culture volume was adjusted to be 100 μl per well. For each culture condition, 300 μl of culture, which corresponds to 3 wells, was performed. 100 μl per well of the cells pre-cultured under each condition was added into 3 wells in the plate that had been washed in PBS after blocking, and cultured overnight at 37° C. under a condition of 5% CO2. The cultured cells were removed from the wells and washed five times in 200 μl/well of PBS. […] The plate was allowed to stand still at room temperature for 2 hours. This plate was washed five times in 200 μl/well of PBS. Streptavidin to which alkaline phosphatase was bound (MABTECH ELISPot™ for Human Interferon-γ kit) was diluted with PBS supplemented with 0.5% FBS so that 1:1000, and 100 μl thereof per well was added. The plate was left at room temperature for 1 hour. This plate was washed five times in 200 μl/well of PBS. Then, 100 μl of BCIP/NBTplus substrate solution (Wako) was added per well, which was left in a dark place until spots became visible. When the spots became visible to the naked eye, the plate was washed sufficiently in distilled water. After checking that a membrane in the plate is dry, the number of spots were measured using ELISPot™ reader (AID Autoimmun Diagnostika GmbH), and the data were analyzed with AID software version 3.1 (AID).

[5] = tested on: A27L antigen-specific CD8+ CTLs; test: Induction of A27L-specific CD8+ CTLs by dendritic cells co-pulsed with ZOMETA and apoptotic melanoma cells
Experimental: From a healthy donor, 200 ml of peripheral blood was collected. Mononuclear cells were obtained from this peripheral blood of the healthy donor. At this time, a mononuclear cell layer was collected using a density gradient solution for blood cell separation. After several times of washing in order to remove platelets, etc. from the collected cells, CD14-positive cells were isolated as monocytes with MACS. From the obtained dendritic cell precursors, differentiation induction of dendritic cells was carried out. The medium was prepared by adding 500 U/ml of GM-CSF (IMMUNEX) and 500 U/ml of IL-4 (Osteogenetics GmbH) to AIM-V supplemented with 10% FBS. On day 5 to day 7 after starting culture, immature dendritic cells were obtained.
A cancer cell line derived from MART-1-positive melanoma was collected, placed in a 15 ml tube (BD Falcon) and centrifuged at 1500 rpm for 5 minutes. […]
Using the number of all lymphocytes that were proliferated 7, 11 and 14 days after the start of co-culture, a labeled antibody and an antigen-specific tetramer, the ratio of the antigen-specific CD8+ CTLs in all of the lymphocytes was measured with a flow cytometer. […] The cells were measured using EPICS XL.MCL, and the results of measurement were analyzed using EPICS 32.

## O=P(O)(O)C(O)(Cn1ccnc1)P(=O)(O)O [ZOMETA ™, zoledronate sodium hydrate]
[1]; ZOMETA 0.01 μM
  The number of CTLs: 10845
  The total number of cells: 2.01 × 10^6
  Ratio of CTLs (%): 0.54%
[1]; ZOMETA 0.1 μM
  The number of CTLs: 12130
  The total number of cells: 2.17 × 10^6
  Ratio of CTLs (%): 0.56%
[1]; ZOMETA 1 μM
  The number of CTLs: 11389
  The total number of cells: 1.96 × 10^6
  Ratio of CTLs (%): 0.58%
[1]; ZOMETA 5 μM
  The number of CTLs: 21266
  The total number of cells: 2.84 × 10^6
  Ratio of CTLs (%): 0.75%
[1]; ZOMETA 20 μM
  The number of CTLs: 21133
  The total number of cells: 2.94 × 10^6
  Ratio of CTLs (%): 0.72%
[1]; co-pulse ZOMETA 0 to 20 μM and BMLF1
  ratio of antigen-specific CD8+ CTLs versus dendritic cells pulsed with peptides alone: about 3.2 times
[2]; co-pulse 0.01 μM ZOMETA and 2 μg/ml A27L
  ratio of antigen-specific CD8+ CTLs versus dendritic cells pulsed with peptides alone: about 4 times
[2]; immature dendritic cells, ZOMETA 0.01 μM and/or A27L 2 μg/ml, 7 days co-culture
  Ratio (%) of disease antigen-specific CD8+ CTLs: 0.00%
[3]
  ratio of antigen-specific CD8+ CTLs versus MDA-MB/CD80 cells pulsed with peptides alone: about 6 times
[4]; Donor A, Lymphocytes + dendritic cells pulsed with peptides (re-stimulation)
  The number of IFN-γ producing cells in all of 2500 lymphocytes: 100
[4]; Donor A, Lymphocytes alone (no re-stimulation)
  The number of IFN-γ producing cells in all of 2500 lymphocytes: 4
[4]; Donor B, Lymphocytes + dendritic cells pulsed with peptides (re-stimulation)
  The number of IFN-γ producing cells in all of 2500 lymphocytes: 50
[4]; Donor B, Lymphocytes alone (no re-stimulation)
  The number of IFN-γ producing cells in all of 2500 lymphocytes: 0
[5]; day 11, versus apoptotic cells alone
  increase of tetramer-positive cells by the addition of ZOMETA: about 15 times
[5]; day 11 of culture, ZOMETA 0.01 μM, apoptotic MART-1-positive melanoma cells
  Ratio of CD8+ CTLs (%), A27L-specific: 0.14%
